Measured values published in patent US11261189B2, “Substituted 2,4 diamino-quinoline as new medicament for fibrosis, autophagy and cathepsins B (CTSB), L (CTSL) and D (CTSD) related diseases” (Genoscience Pharma, priority 2018, dated 2022).
Structures can show the parent of a compound that is named as a salt.

System: diethyl nitrosamine (DEN) cirrhotic rat model of liver fibrosis
Assay: DEN induced cirrhosis in rats, study 1: Sirius red quantification of liver fibrosis
Type: in vivo
Conditions: 6 weeks after 14 weeks DEN
Excerpt: This animal model allows developing an extensive liver fibrosis, leading to a compensated liver cirrhosis with a multifocal hepatocarcinoma (HCC) after 14 weeks of induction (Schiffer, E. et al. Hepatology 2005 (41), 307-314). The DEN cirrhotic rat animal model was used here as a specific animal model of liver fibrosis.
Forty two Fisher 344 male rat (obtained from Charles River Laboratories France, including spare animals), weighting approximately 280 g at the start of the study, were randomized in 5 groups of 8 (groups 1, 2, 3 and 5) or 6 (group 4) animals and housed with 3 animals per cage, given free access to food and water and allowed to acclimate for at least 5 days prior to test initiation.
The DEN cirrhotic rat model was obtained after 14 weekly intraperitoneal injections of DEN (intra-peritoneal injections (i.p.) of DEN at 50 mg/kg/week). The animals were then treated according to Table 9 during 6 weeks. In this in vivo experiment, the anti-fibrotic activity of compound 2-3 was evaluated in liver fibrosis animal model, alone or in combination with Sorafenib (a multikinase inhibitor of Raf-1, B-Raf, VEGFR-2, VEGFR3, PDGFRβ, Flt3 and c-Kit). After 6 weeks of treatment, all animals were sacrificed using CO2 and rat livers were collected for analysis. The quantification of the liver fibrotic tissue was evaluated by Sirius red staining of rat liver sections.
Group 1 contained 8 animals which were daily dosed (q.d.) by oral gavage (per os, p.o.) with the vehicle during 6 weeks.
Group 2 contained 8 animals which were daily dosed (q.d.) by oral gavage (per os, p.o.) with Sorafenib at 10 mg/kg/day during 6 weeks.
Group 3 contained 8 animals which were daily dosed (q.d.) by oral gavage (per os, p.o.) with compound 2-3 at 15 mg/kg/day during 6 weeks.
Group 4 contained 6 animals which were daily dosed (q.d.) by oral gavage (per os, p.o.) with compound 2-3 at 15 mg/kg/day in combination with Sorafenib at 10 mg/kg/day during 6 weeks.
Group 5 contained 8 animals which were daily dosed (q.d.) by oral gavage (per os, p.o.) with compound 2-3 at 30 mg/kg/day during 6 weeks. […]

`CC(C)(C)NC1CCN(c2cc(NCc3ccc(Cl)cc3)nc3ccccc23)CC1` [2-3, 2-(4-chlorobenzylamino)-4-(4-tert-butylaminopiperidin-1-yl)-quinoline Hydrochloride Salt] was tested, and the “reduction of the level of collagen fibers deposition (Sirius red) compared to the control group” value (group 3: 15 mg/kg/day p.o. q.d., p<0.05) was 41.0% and the “reduction of the level of collagen fibers deposition (Sirius red) compared to the control group” value (group 5: 30 mg/kg/day p.o. q.d., p=0.01) was 45.3%.
